This note sets out measurements from US7049321B2, “Methods and pharmaceutical compositions for treatment of central and peripheral nervous system disorders and compounds useful therefor” (Israel Institute for Biological Research, priority 2002, dated 2006).

One data set concerns Aging microcebes. Description: Effects in aging microcebes. The class given is in vivo. Conditions: chronic treatment for 18 months. The text has this:
Aging microcebes show similar cognitive deficits and cerebral lesions to those observed in aging humans and in AD patients. Thus this is a good animal model for AD, mimicing the three major hallmarks in AD {plaques (Aβ), paired helical filaments (hyperphophorylated and aggregated τ) and cognitive dysfunction}. This model may also be used to mimic MCI conducive to AD

Another data set deals with naive rats. Put plainly: Social memory (olfactory recognition) in naive rats. Type of data set: in vivo, Wistar rats. Conditions: 0.5, 1 and 5 mg/kg, p.o. Here is the method: 12 Male Wistar rats, 400–530 gr (4–5 months old) were used. Rats were housed individually 14 days before testing. Juvenile Wistar rats 40–50 gr (at arrival) were kept in groups of 6 and served as social stimuli for the adult rats. Animals were kept at 21° C.±1, with an inverse light-dark cycle (light on from 2:00 P.M. to 2:00 A.M.). The sessions were conducted 7 hr into the dark part of the light/dark cycle, under red illumination.
Adult rats were placed in a dim illumination room 1.5 h before the beginning of the social test. All juveniles were isolated in cages for 30 min prior to the beginning of the experiment. At the beginning of testing, an unfamiliar juvenile rat was placed in the home cage of an adult rat for 5 min. The time spent by the adult rat in investigating the juvenile rat was recorded. The adult rat was then immediately (1–2 min) treated with vehicle or test compound. Two hours later, the same juvenile was presented to the same adult rat for another 5 min period, a time when normally the stimulus juvenile is no longer identified (i.e., the adult rat investigates the juvenile for the same amount of time as during the first presentation). […]
Time spent in social investigation of stimulus juvenile rat was measured (in sec) and then expressed for each animal as the ratio of the second exposure to the first exposure (Ratio of Investigation Duration (RID)). […]

The subject of data set [1] is cells transfected with M1 mAChR. Put plainly: Apoptosis (DAPI, TUNEL, FACS) after starvation, Aβ or H2O2. Type of data set: cell-based, rat. The settings on record: for Apoptotic cell death induced by starvation: 24 hrs starvation; for H2O2-induced apoptosis: H2O2 25 and 50 μm; for Aβ-induced apoptosis: β-A25-35 or β-A1-42 (25 μM), M1 transfected cells; for Apoptotic population after β-amyloid (FACS): β-Amyloid 25–35 or 1–42. As for the experimental part:
Several experiments were performed in serum-free medium.
Cells were grown and treated on glass coverslips.
Apoptotic cells were identified as the pre-G1 phase.

The next data set has as its target T1, rat M1 mAChR (Rattus norvegicus, UniProt P08482).
T1 construct: expressed in transfected cells; host or cells: probably the rat pheochromocytoma cells transfected with M1 mAChR
Description: PI turnover, rat M1 mAChR. Type of data set: cell-based.

A further data set addresses T2, human M1 (Homo sapiens, UniProt P11229).
T2 sequence (P11229 1-460): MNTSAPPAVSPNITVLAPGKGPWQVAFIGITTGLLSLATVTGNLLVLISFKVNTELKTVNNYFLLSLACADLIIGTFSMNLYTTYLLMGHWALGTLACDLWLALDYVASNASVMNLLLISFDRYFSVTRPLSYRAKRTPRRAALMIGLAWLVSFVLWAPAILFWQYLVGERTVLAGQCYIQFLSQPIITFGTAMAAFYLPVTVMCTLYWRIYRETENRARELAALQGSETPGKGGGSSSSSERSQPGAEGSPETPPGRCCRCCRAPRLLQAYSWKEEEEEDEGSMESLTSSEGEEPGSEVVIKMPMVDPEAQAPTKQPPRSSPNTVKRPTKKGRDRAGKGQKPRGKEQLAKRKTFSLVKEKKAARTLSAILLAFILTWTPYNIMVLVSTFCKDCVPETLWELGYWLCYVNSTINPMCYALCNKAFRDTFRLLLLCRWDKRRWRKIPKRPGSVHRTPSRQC
Put plainly: Binding study, M1 (human). The settings on record: 10 μm.

Data set [2] can be described thus: Metabolic stability, rat liver microsomes. Conditions: read-out: Metabolic Stability T1/2. Type of data set: in vitro ADME. Here is the method: The metabolic stability of AF292 was evaluated by monitoring its disappearance while incubated with rat, […], monkey, and human hepatic microsomes. Testosterone, and propranolol were run as assay controls.
The next data set concerns rat hippocampal neurons. Put plainly: Survival, morphology and apoptosis of hippocampal neurons exposed to Aβ. The class given is cell-based. Here is the method:
This study was performed in rat hippocampal primary cell cultures using the methods described by Garrido J L et al. (FASEB J 2002; 16:1982).

The test system of a further data set is rabbits with nbm lesions. Description: CSF and cortical Aβ in hypocholinergic (nbm-lesioned) rabbits. Type of data set: in vivo, New Zealand White rabbits. The settings on record: 4 weeks. An excerpt: It is known that experimentally-induced cortical cholinergic denervation results in biochemical elevations of cortical Aβ concentrations and in histologic Aβ deposition (Beach et al, Neurosci Lett 283: 9–12, 2000), and that administration of muscarinic Ml-selective agents to normal animals decreases CSF AP concentrations {Beach et al Brain Res. 905: 220–223, 2001}.
Twenty-eight female New Zealand White rabbits, about 2.5 kg each (young adults) were used. Twenty-one received lesions of the cholinergic nucleus basalis magnocellularis (nbm). The lesion was accomplished with unilateral i.c.v. injections of an immunotoxin consisting of the ribosomal toxin saporin conjugated to the monoclonal antibody ME20.4, which is directed against the low-affinity neurotrophin receptor, p75. The ME20.4 antibody is made against monkey p75 and also recognizes rabbit p75. The dose of immunotoxin was 32.4 μg in 12 μl; this was delivered to the right lateral ventricle 2 mm lateral to the bregma. Seven animals received i.c.v. injections of sterile normal saline (sham lesion). Animals which received the immunotoxin were divided into 3 groups of 7. […] Another group received physostigmine hemisalicylate in normal saline by s.c. osmotic pump at a daily dose of 3 mg/kg. The third group received twice-daily sterile saline s.c. injections. The animals which received a sham lesion were implanted with s.c. osmotic pumps filled with sterile normal saline. Animals were euthanized 4 weeks after surgery. […] Cerebrospinal fluid was taken from the cisterna magna of all animals at the time of sacrifice; the brain was removed and sliced coronally into 0.5 cm slices. […] The other slices were frozen on sheets of dry ice (the other slices are the non-fixed 0.5 cm coronal slices of cerebrum, brainstem and cerebellum).

For data set [3] the following is noted: mouse, in vivo.
Description: This calculation was based on the brain weight (2 gr) vs. total plasma volume (14 ml).

T1 sequence (P08482 whole entry): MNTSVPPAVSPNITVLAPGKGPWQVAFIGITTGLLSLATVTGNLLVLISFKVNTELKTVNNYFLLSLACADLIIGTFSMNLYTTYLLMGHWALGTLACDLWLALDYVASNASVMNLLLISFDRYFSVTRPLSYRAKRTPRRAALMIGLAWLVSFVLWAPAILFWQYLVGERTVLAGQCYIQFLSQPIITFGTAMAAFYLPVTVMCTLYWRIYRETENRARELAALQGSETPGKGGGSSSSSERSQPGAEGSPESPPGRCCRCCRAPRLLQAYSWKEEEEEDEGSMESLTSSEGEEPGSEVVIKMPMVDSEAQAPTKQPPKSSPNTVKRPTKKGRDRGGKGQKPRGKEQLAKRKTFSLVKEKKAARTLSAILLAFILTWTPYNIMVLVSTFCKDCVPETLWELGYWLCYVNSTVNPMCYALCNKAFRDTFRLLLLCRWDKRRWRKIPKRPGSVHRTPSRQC

Take `CC1=NCC2(CCN(C)CC2)S1` [AF150(S), 2,8-Dimethyl-1-thia-3,8-diaza-spiro[4.5]dec-2-ene]: in the data set on Aging microcebes, the Astrogliosis and inflammation result is “decreased astrogliosis and inflammation”; the “Cognitive and behavioral impairments” value was “improved the cognitive and behavioral impairments”; the “Hyperphosphorylated τ, aggregated τ neurons, paired helical filaments” value was “decreased hyperphosphorylated τ proteins”. For the same compound, the “Investigation time of the same juvenile (RID)” value in the data set on naive rats is recorded as “decreased the investigation time”. Besides, in [1], the “Apoptotic death during starvation (FACS)” value is “protected cells from apoptotic death”, the “Apoptotic cell death induced by starvation” value is “significantly protect”, the H2O2-induced apoptosis entry was “prevented H2O2-induced apoptosis” and the Aβ-induced apoptosis entry is listed as “prevented”. Besides, the “Apoptotic population after β-amyloid (FACS)” value in data set [1] is given as “reduced the apoptotic population significantly”.

For `CC[C@@H]1SC2(CCNCC2)NC1=O` [AF292, (S)-2-Ethyl-1-thia-4,8-diaza-spiro[4.5]decan-3-one], the “PI turnover vs. CCh, rat M1 mAChR” value at rat M1 mAChR is given as “PI, rat M1 mAChR; 50%”. Also, the “Binding, %” value on human M1 came to 55%. The half-life in [2] was 1.53 h.

Consider `CC[C@@H]1SC2(CCN(C)CC2)NC1=O` [AF267B, (S)-2-ethyl-8-methyl-1-thia-4,8-diaza-spiro[4.5]decan-3-one], for which, on rat M1 mAChR, the “PI turnover vs. CCh, rat M1 mAChR” value is “PI, rat M1 mAChR: 75%”. Moreover, the “Protection of hippocampal neurons from Aβ1–40” value in the data set with rat hippocampal neurons (10 μM, Aβ1–40 (5 μM)) was greater than 90%. Further, in the data set on rat hippocampal neurons (10 μM, Aβ1–40 (5 μm)), the “Aβ1–40-induced apotosis” value was “to the control level”. The “Survival and morphology of hippocampal neurons, compound alone” value with rat hippocampal neurons (0.5–50 μM) is “does not affect the survival and morphology”. For the same compound, the “Neurites after Aβ1–40 (immunofluorescence)” value in the data set on rat hippocampal neurons (Aβ1–40 (5 μM)) is “protected the neurons”. In the data set with rabbits with nbm lesions (1 mg/kg s.c. twice daily), the “CSF Aβ (4 kDa band)” value is “noticeable decrease” and the “CSF sAPPα band intensity” value is on record as “no significant difference”. For the same compound, in the data set with rabbits with nbm lesions, the “Histologic Aβ deposition, % of the lesioned, untreated group” value turned out to be 12%. Moreover, the “Investigation time of the same juvenile (RID)” value in the data set on naive rats was “decreased the investigation time”. For the same compound, the half-life in [2] amounted to 1.47 h. Besides, in data set [1], the “Apoptotic death during starvation (FACS)” value is “protected cells from apoptotic death”, the “Apoptotic cell death induced by starvation” value was “significantly protect”, the H2O2-induced apoptosis result is recorded as “prevented H2O2-induced apoptosis” and the Aβ-induced apoptosis entry was “prevented”. Further, the “Apoptotic population after β-amyloid (FACS)” value in data set [1] was “reduced the apoptotic population significantly”. Also, in [3], the “time detected in the brain after dosing” value is 2 to 240 min.
